This experiment has as its target T1, MAP3K7/MAP3K7IP1 (TAK1-TAB1) (Homo sapiens, UniProt O43318).
T1 construct: purchased Thermo Fisher Scientific (Life Technologies) SelectScreen
Briefly: SelectScreen LanthaScreen. As to conditions: read-out: % displacement. In kind it is binding. In outline: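 Percent values come from Thermo SelectScreen profiling of NU5455, combining activity and binding assays. CSF1R was run in Z'LYTE format at Km app ATP, and CAMK1 in Adapta format with ATP listed at 10.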

T1 sequence (O43318 1-303 limits assumed): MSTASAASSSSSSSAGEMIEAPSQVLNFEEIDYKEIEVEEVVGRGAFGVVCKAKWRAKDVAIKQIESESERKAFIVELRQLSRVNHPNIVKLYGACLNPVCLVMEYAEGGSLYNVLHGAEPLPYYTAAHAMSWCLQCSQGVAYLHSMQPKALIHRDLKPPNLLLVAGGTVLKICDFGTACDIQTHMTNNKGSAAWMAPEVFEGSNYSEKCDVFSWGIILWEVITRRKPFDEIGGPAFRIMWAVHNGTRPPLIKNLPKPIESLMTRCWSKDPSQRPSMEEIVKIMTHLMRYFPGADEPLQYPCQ
T1 sequence (Q15750 437-504 partner limits assumed): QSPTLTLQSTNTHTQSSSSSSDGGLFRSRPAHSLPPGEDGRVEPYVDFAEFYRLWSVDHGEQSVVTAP

`CN(C(=O)CN1CCOCC1)c1ccc2sc3c(-c4cccc5c(=O)cc(N6CC7CCC(C6)O7)oc45)cccc3c2c1` [NU5455]: the inhibition at 1 µM was -3.4%.

The values above are taken from article PMC6934184, “Selective DNA-PKcs inhibition extends the therapeutic index of localized radiotherapy and chemotherapy” (The Journal of Clinical Investigation, 2019).
